Experimental data published in publication PMC9596378, “Discovery and molecular basis of subtype-selective cyclophilin inhibitors” (Nature Chemical Biology, 2022).

What follows are compounds tested against CypD (Homo sapiens, UniProt P30405) (assay: Chymotrypsin coupled prolyl-isomerase assay). Conditions: not given.
Experimental: Five microliters of compound pre-dissolved in 5% DMSO/assay buffer was then added to appropriate wells and incubated at 2–3 °C for 5 min. Five microliters of 0.5 mM α-chymotrypsin from bovine pancreas (Type II, lyophilized powder, Millipore-Sigma) in 20% 1 mM HCl/Assay Buffer was then added to each well and incubated at 2–3 °C for 5 min. The plate was then quickly transferred to a FLIPR Tetra High-Throughput Cellular Screening System (Molecular Devices). Using the internal liquid handling system of the FLIPR, 1 µL 0.5 mM Suc-AAPF-AMC (Chymotrypsin Substrate II, Millipore-Sigma) dissolved in 0.55 M LiCl/2,2,2-trifluoroethanol was added to each well, which was then mixed for 5 s, followed by immediate fluorescence measurements every 1 s for 330 s using a 360–380 nm excitation LED module and a 400–460 nm emission filter. […] Raw fluorescence data was analyzed by non-linear regression analysis with Prism v.9 by fitting one-phase association curves to each well. […] Rate constants calculated for each well (s^−1) were then normalized to substrate only (no prolyl-isomerase) and enzyme + substrate only controls.

Sequence of CypD (P30405 45-207): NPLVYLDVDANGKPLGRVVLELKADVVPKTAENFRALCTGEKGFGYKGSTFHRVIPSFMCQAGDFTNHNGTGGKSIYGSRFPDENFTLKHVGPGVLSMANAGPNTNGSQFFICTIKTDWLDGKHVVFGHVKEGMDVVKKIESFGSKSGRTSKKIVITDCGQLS

SMILES	IC50 [µM]	CypD prolyl-isomerase inhibition (in words)
CC(C)(C)CC1NC(=O)C(CC2CCCCC2)NC(=O)C2CCCN2C(=O)C=CC(=O)NCc2cccc(c2)CC(C(=O)NCCOCCN)NC1=O (centres unmarked) [HJJJt/c]	–	no prolyl-isomerase inhibition
CC(C)(C)CC1NC(=O)C(Cc2ccco2)NC(=O)C2CCCN2C(=O)C=CC(=O)NCc2cccc(c2)CC(C(=O)NCCOCCN)NC1=O (centres unmarked) [HOJJt/c]	–	no prolyl-isomerase inhibition
NC(=O)C1CCNC(=O)C=CC(=O)N2CCCC(CC(=O)NC(Cc3ccco3)C(=O)NCc3ccccc3CC(=O)N1)C2 (centres unmarked) [JOBBc-A]	> 100	–
NCCOCCNC(=O)C1CCNC(=O)C=CC(=O)N2CCCC(CC(=O)NC(Cc3ccco3)C(=O)NCc3ccccc3CC(=O)N1)C2 (centres unmarked) [JOBBt]	49 ± 6	–
NCCOCCNC(=O)C1CCNC(=O)C=CC(=O)N2CCCC2CC(=O)NC(Cc2ccco2)C(=O)NCc2ccccc2CC(=O)N1 (centres unmarked) [JOCBt]	> 100	–
NC(=O)C1CCNC(=O)C=CC(=O)NC2CCC(CC2)C(=O)NC(Cc2ccco2)C(=O)NCc2ccccc2CC(=O)N1 (centres unmarked) [JOGBt-A]	> 100	–
NCCOCCNC(=O)C1CNC(=O)C=CC(=O)N2CCCC(C2)C(=O)NC(Cc2ccco2)C(=O)NCc2ccccc2CC(=O)N1 (centres unmarked) [JOMAt]	> 100	–
NCCOCCNC(=O)C1CCNC(=O)C=CC(=O)N2CCCC(C2)C(=O)NC(Cc2ccco2)C(=O)NCc2ccccc2CC(=O)N1 (centres unmarked) [JOMBc]	> 100	–
NC(=O)C1CCNC(=O)C=CC(=O)N2CCCC(C2)C(=O)NC(Cc2ccco2)C(=O)NCc2ccccc2CC(=O)N1 (centres unmarked) [JOMBt-A]	18 ± 3	–
NCCCOCCOCCOCCCNC(=O)C1CCNC(=O)C=CC(=O)N2CCCC(C2)C(=O)NC(Cc2ccco2)C(=O)NCc2ccccc2CC(=O)N1 (centres unmarked) [JOMBt-D]	5.2 ± 0.3	–
NCCOCCNC(=O)C1CCCNC(=O)C=CC(=O)N2CCCC(C2)C(=O)NC(Cc2ccco2)C(=O)NCc2ccccc2CC(=O)N1 (centres unmarked) [JOMCt]	> 100	–
NCCOCCNC(=O)C1CCNC(=O)Cc2ccccc2CNC(=O)C(Cc2ccco2)NC(=O)C2CCCN(C2)C(=O)C=CC(=O)N1 (centres unmarked) [JOMFc]	> 100	–
NCCOCCNC(=O)C1CCNC(=O)Cc2ccccc2CNC(=O)C(Cc2ccco2)NC(=O)C2CCCN(C2)C(=O)C=CC(=O)N1 (centres unmarked) [JOMFt]	~90	–

The next lines start with results.

IC50 [µM]	SMILES	CypD prolyl-isomerase inhibition (in words)
> 100	NCCOCCNC(=O)C1CCNC(=O)C=CC(=O)N2CCCC(C2)C(=O)NC(Cc2ccco2)C(=O)NCc2ccccc2C(=O)N1 (centres unmarked) [Compound A1]	–
> 100	NCCOCCNC(=O)C1CCNC(=O)C=CC(=O)N2CCCC(C2)C(=O)NC(Cc2ccco2)C(=O)Nc2ccccc2CC(=O)N1 (centres unmarked) [Compound A2]	–
> 100	NCCOCCNC(=O)C1CCNC(=O)C=CC(=O)N2CCCC(C2)C(=O)NC(Cc2ccco2)C(=O)NC2C=CC(C2)C(=O)N1 (centres unmarked) [Compound A4]	–
> 100	NCCOCCNC(=O)C1CCNC(=O)C=CC(=O)N2CCCC(C2)C(=O)NC(Cc2ccco2)C(=O)Nc2ccccc2C(=O)N1 (centres unmarked) [Compound A6]	–
> 100	NCCOCCNC(=O)C1CCNC(=O)C=CC(=O)N2CCCC(C2)C(=O)NC(Cc2ccco2)C(=O)NCc2ccccc2CC(=O)N1 (centres unmarked) [Compound A7]	–
> 100	CC1NC(=O)C2CCCN(C2)C(=O)C=CC(=O)NCCC(C(=O)NCCOCCN)NC(=O)Cc2ccccc2CNC1=O (centres unmarked) [Compound A8]	–
17 ± 6	NCCOCCNC(=O)C1CCNC(=O)C=CC(=O)N2CCCC(C2)C(=O)NC(Cc2ccccc2)C(=O)NCc2ccccc2CC(=O)N1 (centres unmarked) [Compound A9]	–
> 100	CC(C)CC1NC(=O)C2CCCN(C2)C(=O)C=CC(=O)NCCC(C(=O)NCCOCCN)NC(=O)Cc2ccccc2CNC1=O (centres unmarked) [Compound A10]	–
17 ± 4	NCCOCCNC(=O)C1CCNC(=O)C=CC(=O)N2CCCC(C2)C(=O)NC(CC=Cc2ccccc2)C(=O)NCc2ccccc2CC(=O)N1 (centres unmarked) [Compound A11]	–
> 100	NCCOCCNC(=O)C1CCNC(=O)C=CC(=O)N2CCCC(C2)C(=O)NC(CC2CCCCC2)C(=O)NCc2ccccc2CC(=O)N1 (centres unmarked) [Compound A12]	–
18 ± 3	NCCOCCNC(=O)C1CCNC(=O)C=CC(=O)N2CCCC(C2)C(=O)NC(Cc2ccc(-c3ccccc3)cc2)C(=O)NCc2ccccc2CC(=O)N1 (centres unmarked) [Compound A15]	–
> 100	NCCOCCNC(=O)C1CCNC(=O)C=CC(=O)N2CCCC(C2)C(=O)NC(CCc2ccccc2)C(=O)NCc2ccccc2CC(=O)N1 (centres unmarked) [Compound A16]	–
14 ± 3	NCCOCCNC(=O)C1CCNC(=O)C=CC(=O)N2CCCC(C2)C(=O)NC(Cc2cccs2)C(=O)NCc2ccccc2CC(=O)N1 (centres unmarked) [Compound A17]	–
22 ± 3	Cc1cccc(CC2NC(=O)C3CCCN(C3)C(=O)C=CC(=O)NCCC(C(=O)NCCOCCN)NC(=O)Cc3ccccc3CNC2=O)c1 (centres unmarked) [Compound A19]	–
10 ± 2	CC(C)(C)c1ccc(CC2NC(=O)C3CCCN(C3)C(=O)C=CC(=O)NCCC(C(=O)NCCOCCN)NC(=O)Cc3ccccc3CNC2=O)cc1 (centres unmarked) [Compound A20]	–
> 100	NCCOCCNC(=O)C1CCNC(=O)C=CC(=O)N2CCCC(C2)C(=O)NC(Cc2ccco2)C(=O)NCc2ccccc2CC(=O)N1 (centres unmarked) [Compound A21]	–
> 100	NCCOCCNC(=O)C1CCNC(=O)C=CC(=O)N2CCCCC2C(=O)NC(Cc2ccco2)C(=O)NCc2ccccc2CC(=O)N1 (centres unmarked) [Compound A23]	–
> 100	NCCOCCNC(=O)C1CCNC(=O)C=CC(=O)N2CCC(C2)C(=O)NC(Cc2ccco2)C(=O)NCc2ccccc2CC(=O)N1 (centres unmarked) [Compound A24]	–
10 ± 2	NCCOCCNC(=O)C1CCNC(=O)C=CC(=O)NC2CCCC(C2)C(=O)NC(Cc2ccco2)C(=O)NCc2ccccc2CC(=O)N1 (centres unmarked) [Compound A28]	–
6.2 ± 0.9	NCCOCCNC(=O)C1CCNC(=O)C=CC(=O)NC2CCCC(C2)C(=O)NC(Cc2ccco2)C(=O)NCc2ccccc2CC(=O)N1 (centres unmarked) [Compound A29]	–
> 100	NCCOCCNC(=O)C1CCNC(=O)CCC(=O)N2CCCC(C2)C(=O)NC(Cc2ccco2)C(=O)NCc2ccccc2CC(=O)N1 (centres unmarked) [Compound A30]	–

Same assay, conditions: IC50 CypD cis, cis olefin isomer

SMILES	IC50 [µM]
CC(C)(C)CC1NC(=O)C(CC2CCCCC2)NC(=O)C2CCCN2C(=O)C=CC(=O)NCc2cccc(c2)CC(C(=O)NCCOCCN)NC1=O (centres unmarked) [HJJJt/c]	> 100
CC(C)(C)CC1NC(=O)C(Cc2ccco2)NC(=O)C2CCCN2C(=O)C=CC(=O)NCc2cccc(c2)CC(C(=O)NCCOCCN)NC1=O (centres unmarked) [HOJJt/c]	> 100
NCCOCCNC(=O)C1CNC(=O)C=CC(=O)NC2CCC(CC2)C(=O)NC(Cc2ccco2)C(=O)NCc2ccccc2CC(=O)N1 (centres unmarked) [JOGA]	> 100
NCCOCCNC(=O)C1CCNC(=O)C=CC(=O)N2CCCC(C2)C(=O)NC(Cc2ccco2)C(=O)NCc2ccccc2CC(=O)N1 (centres unmarked) [JOMB]	> 100

Same assay, conditions: IC50 CypD trans, trans olefin isomer

SMILES	IC50 [µM]
CC(C)(C)CC1NC(=O)C(CC2CCCCC2)NC(=O)C2CCCN2C(=O)C=CC(=O)NCc2cccc(c2)CC(C(=O)NCCOCCN)NC1=O (centres unmarked) [HJJJt/c]	> 100
CC(C)(C)CC1NC(=O)C(Cc2ccco2)NC(=O)C2CCCN2C(=O)C=CC(=O)NCc2cccc(c2)CC(C(=O)NCCOCCN)NC1=O (centres unmarked) [HOJJt/c]	> 100
NCCOCCNC(=O)C1CNC(=O)C=CC(=O)NC2CCC(CC2)C(=O)NC(Cc2ccco2)C(=O)NCc2ccccc2CC(=O)N1 (centres unmarked) [JOGA]	> 100
